Source: patent publication US11370774B2, “Substituted benzofuran, benzopyrrole, benzothiophene, and structurally related complement inhibitors” (BioCryst Pharmaceuticals, Inc., priority 2018, dated 2022)

molecular target: Factor D (Homo sapiens (Human), UniProt P00746); experiment: Factor D esterolytic assay (Z-Lys-SBzl substrate, DTNB, 405 nm); type: biochemical; conditions: Z-Lys-SBzl 1.29 mM, pH 7.5, 10% DMSO, tested a minimum of three times, read-out: Measured Ki (IC50) Value for Compounds: IC50
Sequence (P00746 26-253): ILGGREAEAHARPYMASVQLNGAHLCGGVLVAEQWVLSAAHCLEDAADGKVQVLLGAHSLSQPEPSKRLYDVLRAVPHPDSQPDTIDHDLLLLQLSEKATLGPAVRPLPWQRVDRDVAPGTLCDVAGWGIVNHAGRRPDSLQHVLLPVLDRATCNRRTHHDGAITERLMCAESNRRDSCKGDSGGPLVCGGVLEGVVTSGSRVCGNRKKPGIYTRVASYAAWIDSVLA
In short: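 Human Factor D ([…]) with 1.29 mM Z-Lys-SBzl in 100 mM HEPES, 500 mM NaCl, pH 7.5, 10% DMSO; substrate added immediately or after room-temperature preincubation. Released thiol reacted with DTNB, rate followed at 405 nm for 600 sec, 690 nm background subtracted. IC50 from percent inhibition versus uninhibited rate, n≥3.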

Structure (SMILES)	IC50
NCc1cccc(-c2cc(COc3ccccc3CC(=O)O)cc3ccoc23)c1O [Compound 248c, 2-(2-((7-(3-(aminomethyl)-2-hydroxyphenyl)benzofuran-5-yl)methoxy)phenyl)acetic acid]	< 1000 nM
NCc1cccc(-c2cc(COc3ccc(O)cc3CC(=O)O)cc3ccoc23)c1 [Compound 249f, 2-(2-((7-(3-(aminomethyl)phenyl)benzofuran-5-yl)methoxy)-5-hydroxyphenyl)acetic acid]	< 1000 nM
NCc1cccc(-c2cc(NC(=O)[C@@H]3CCCN3CC(=O)O)cc3ccoc23)c1 [Compound 250f, (S)-2-(2-((7-(3-(aminomethyl)phenyl)benzofuran-5-yl)carbamoyl)pyrrolidin-1-yl)acetic acid]	1000 to 10000 nM
COc1c(C(=O)Nc2ccccc2CC(=O)O)cc(-c2ccnc(CN)c2)c2occc12 [Compound 251c, 2-(2-(7-(2-(aminomethyl)pyridin-4-yl)-4-methoxybenzofuran-5-carboxamido)phenyl)acetic acid]	1000 to 10000 nM
CC(=O)c1cc2cc(COc3ccccc3CC(=O)O)cc(-c3cccc(CN)c3)c2o1 [Compound 252d, 2-(2-((2-acetyl-7-(3-(aminomethyl)phenyl)benzofuran-5-yl)methoxy)phenyl)acetic acid]	< 1000 nM
NCc1cccc(-c2cc(COc3ccc(CO)cc3CC(=O)O)cc3ccoc23)c1 [Compound 254c, 2-(2-((7-(3-(aminomethyl)phenyl)benzofuran-5-yl)methoxy)-5-(hydroxymethyl)phenyl)acetic acid]	< 1000 nM
NCc1cc(F)cc(-c2cc(COc3ccccc3CC(=O)O)cc3ccoc23)c1F [Compound 256c, 2-(2-((7-(3-(aminomethyl)-2,5-difluorophenyl)benzofuran-5-yl)methoxy)phenyl)acetic acid]	< 1000 nM
NCc1cccc(-c2cc(COc3cc(F)ccc3CC(=O)O)cc3ccoc23)c1 [Compound 260g, 2-(2-((7-(3-(aminomethyl)phenyl)benzofuran-5-yl)methoxy)-4-fluorophenyl)acetic acid]	< 1000 nM
NCc1cccc(-c2cc(COc3cc(CC4CC4)ccc3CC(=O)O)cc3ccoc23)c1 [Compound 261c, 2-(2-((7-(3-(aminomethyl)phenyl)benzofuran-5-yl)methoxy)-4-(cyclopropylmethyl)phenyl)acetic acid]	< 1000 nM
NCc1cccc(-c2cc(COc3c(F)cccc3CC(=O)O)cc3ccoc23)c1 [Compound 264c, 2-(2-((7-(3-(aminomethyl)phenyl)benzofuran-5-yl)methoxy)-3-fluorophenyl)acetic acid]	< 1000 nM
CCOc1ccc(CC(=O)O)c(OCc2cc(-c3cccc(CN)c3)c3occc3c2)c1 [Compound 265g, 2-(2-((7-(3-(aminomethyl)phenyl)benzofuran-5-yl)methoxy)-4-ethoxyphenyl)acetic acid]	< 1000 nM
Cc1noc2c(-c3ccnc(CN)c3)cc(COc3ccccc3CC(=O)O)cc12 [Compound 268h, 2-(2-((7-(2-(aminomethyl)pyridin-4-yl)-3-methylbenzo[d]isoxazol-5-yl)methoxy)phenyl)acetic acid]	< 1000 nM
Cc1ccc(CC(=O)O)c(OCc2cc(-c3cccc(CN)c3F)c3occc3c2)c1 [Compound 270c, 2-(2-((7-(3-(aminomethyl)-2-fluorophenyl)benzofuran-5-yl)methoxy)-4-methylphenyl)acetic acid]	< 1000 nM
Cc1ccc(CC(=O)O)c(OCc2cc(-c3ccnc(CN)c3)c3occc3c2)c1 [Compound 271e, 2-(2-((7-(2-(aminomethyl)pyridin-4-yl)benzofuran-5-yl)methoxy)-4-methylphenyl)acetic acid]	< 1000 nM
Cc1ccc(CC(=O)O)c(OCc2cc(-c3ccnc(CN)c3F)c3occc3c2)c1 [Compound 272e, 2-(2-((7-(2-(aminomethyl)-3-fluoropyridin-4-yl)benzofuran-5-yl)methoxy)-4-methylphenyl)acetic acid]	< 1000 nM
Cc1cccc(CC(=O)O)c1OCc1cc(-c2cccc(CN)c2)c2occc2c1 [Compound 274g, 2-(2-((7-(3-(aminomethyl)phenyl)benzofuran-5-yl)methoxy)-3-methylphenyl)acetic acid]	< 1000 nM
NCc1ccc(-c2cc(CC(=O)N3[C@@H]4C[C@@H]4C[C@H]3C(=O)NCc3cccc(Cl)c3F)cc3ccoc23)cc1 [Compound 275e, (1R,3S,5R)-2-(2-(7-(4-(aminomethyl)phenyl)benzofuran-5-yl)acetyl)-N-(3-chloro-2-fluorobenzyl)-2-azabicyclo[3.1.0]hexane-3-carboxamide]	1000 to 10000 nM
Cc1cc(CC(=O)O)c(OCc2cc(-c3cccc(CN)c3)c3occc3c2)cc1C [Compound 276f, 2-(2-((7-(3-(aminomethyl)phenyl)benzofuran-5-yl)methoxy)-4,5-dimethylphenyl)acetic acid]	< 1000 nM

The next lines start with the values.

IC50	Structure (SMILES)
< 1000 nM	NCc1cccc(-c2cc(COc3ccccc3C(NC(=O)CCc3ccccc3)C(=O)O)cc3ccoc23)c1 (stereo not drawn) [Compound 253f, 2-(2-((7-(3-(aminomethyl)phenyl)benzofuran-5-yl)methoxy)phenyl)-2-(3-phenylpropanamido)acetic acid]
1000 to 10000 nM	NCc1cccc(-c2cc(C(=O)Nc3ccccc3CC(=O)O)nc3ccoc23)c1 [Compound 255c, 2-(2-(7-(3-(aminomethyl)phenyl)furo[3,2-b]pyridine-5-carboxamido)phenyl)acetic acid]
< 1000 nM	Cc1cc2cc(COc3cc(CN)ccc3CC(=O)O)cc(-c3cccc(CN)c3)c2o1 [Compound 257k, 2-(4-(aminomethyl)-2-((7-(3-(aminomethyl)phenyl)-2-methylbenzofuran-5-yl)methoxy)phenyl)acetic acid]
< 1000 nM	CC(=O)c1ccc(CC(=O)O)c(OCc2cc(-c3cccc(CN)c3)c3occc3c2)c1 [Compound 262c, 2-(4-acetyl-2-((7-(3-(aminomethyl)phenyl)benzofuran-5-yl)methoxy)phenyl)acetic acid]
< 1000 nM	NCc1cccc(-c2cc(COc3cc(-c4ccccc4)ccc3CC(=O)O)cc3ccoc23)c1 [Compound 263c, 2-(3-((7-(3-(aminomethyl)phenyl)benzofuran-5-yl)methoxy)-[1,1′-biphenyl]-4-yl)acetic acid]
< 1000 nM	CCCc1ccc(CC(=O)O)c(OCc2cc(-c3cccc(CN)c3)c3occc3c2)c1 [Compound 266g, 2-(2-((7-(3-(aminomethyl)phenyl)benzofuran-5-yl)methoxy)-4-propylphenyl)acetic acid]
< 1000 nM	Cc1noc2c(-c3cccc(CN)c3F)cc(COc3ccccc3CC(=O)O)cc12 [Compound 267h, 2-(2-((7-(3-(aminomethyl)-2-fluorophenyl)-3-methylbenzo[d]isoxazol-5-yl)methoxy)phenyl)acetic acid]
< 1000 nM	NCc1cccc(-c2cc(CC(=O)N3[C@@H]4C[C@@H]4C[C@H]3C(=O)NCc3cccc(Cl)c3F)cc3ccoc23)c1 [Compound 273g, (1R,3S,5R)-2-(2-(7-(3-(aminomethyl)phenyl)benzofuran-5-yl)acetyl)-N-(3-chloro-2-fluorobenzyl)-2-azabicyclo[3.1.0]hexane-3-carboxamide]
< 1000 nM	NCc1cccc(-c2cc(CC(=O)N3CCC[C@H]3C(=O)NCc3cccc(Cl)c3F)cc3ccoc23)c1 [Compound 277e, (S)-1-(2-(7-(3-(aminomethyl)phenyl)benzofuran-5-yl)acetyl)-N-(3-chloro-2-fluorobenzyl)pyrrolidine-2-carboxamide]
